Reference: PubChem BioAssay AID1963868 (Molecular Pharmacology Branch, DTP, NCI, 2024)

Tested on: KRAS PDC tumor spheroids (HUVEC+MSC), viability
Assay: Anticancer human tumor 254851-301-R-J1-PDC patient-derived colon carcinoma cell line growth inhibition [KRAS2]
Details: for IC50: curve of first compound; for viability, T/C: stronger effect = lower value
In short: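 KRAS-mutant tumor cells were grown as spheroids with HUVEC endothelial cells and human MSCs as stroma. Targeted agents were tested alone and with KRAS pathway inhibitors. Doses started at or near clinical Cmax, or 10 microM, descending half-log.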

[1] = second compound 0.0316 µM, first compound 0.0316 µM
[2] = second compound 0.0316 µM, first compound 0.1 µM
[3] = second compound 0.0316 µM, first compound 0.316 µM
[4] = second compound 0.0316 µM, first compound 1 µM
[5] = second compound 0.0316 µM, first compound 3.16 µM
[6] = second compound 0.0316 µM, first compound 10 µM
[7] = second compound 0.1 µM, first compound 0.0316 µM
[8] = second compound 0.1 µM, first compound 0.1 µM
[9] = second compound 0.1 µM, first compound 0.316 µM
[10] = second compound 0.1 µM, first compound 1 µM
[11] = second compound 0.1 µM, first compound 3.16 µM
[12] = second compound 0.1 µM, first compound 10 µM
[13] = second compound 0.316 µM, first compound 0.0316 µM
[14] = second compound 0.316 µM, first compound 0.1 µM
[15] = second compound 0.316 µM, first compound 0.316 µM
[16] = second compound 0.316 µM, first compound 1 µM
[17] = second compound 0.316 µM, first compound 3.16 µM
[18] = second compound 0.316 µM, first compound 10 µM
[19] = second compound 1 µM, first compound 0.0316 µM
[20] = second compound 1 µM, first compound 0.1 µM
[21] = second compound 1 µM, first compound 0.316 µM
[22] = second compound 1 µM, first compound 1 µM
[23] = second compound 1 µM, first compound 3.16 µM
[24] = second compound 1 µM, first compound 10 µM
[25] = second compound 3.16 µM, first compound 0.0316 µM
[26] = second compound 3.16 µM, first compound 0.1 µM
[27] = second compound 3.16 µM, first compound 0.316 µM
[28] = second compound 3.16 µM, first compound 1 µM
[29] = second compound 3.16 µM, first compound 3.16 µM
[30] = second compound 3.16 µM, first compound 10 µM
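Also: spheroids exposed to compounds for seven days before readout.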
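For viability, T/C in this document: 100% = DMSO vehicle control luminescence of the spheroids.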

SMILES	IC50 (second compound 0.0316 µM) [nM]	IC50 (second compound 0.1 µM) [nM]	IC50 (second compound 0.316 µM) [nM]	IC50 (second compound 1 µM) [nM]	IC50 (second compound 3.16 µM) [nM]	viability, T/C [1] [%]	viability, T/C [2] [%]	viability, T/C [3] [%]	viability, T/C [4] [%]	viability, T/C [5] [%]	viability, T/C [6] [%]	viability, T/C [7] [%]	viability, T/C [8] [%]	viability, T/C [9] [%]	viability, T/C [10] [%]	viability, T/C [11] [%]	viability, T/C [12] [%]	viability, T/C [13] [%]	viability, T/C [14] [%]	viability, T/C [15] [%]	also measured
CC1OCC2(CCN(c3cnc(Sc4ccnc(N)c4Cl)c(N)n3)CC2)C1N (stereo not given) + C=CC(=O)N1CCN(c2nc(OCC3CCCN3C)nc3c2CCN(c2cccc4cccc(C)c24)C3)CC1CC#N	> 10000	> 10000	> 10000	> 10000	> 10000	101	99.7	102	85.4	77.2	75.3	115	107	89.3	85.3	77.1	83	89.8	95.6	93.4	viability, T/C [16]: 84.7%; viability, T/C [17]: 83.4%; viability, T/C [18]: 72.8%; viability, T/C [19]: 59.1%; viability, T/C [20]: 68.1%; viability, T/C [21]: 65.3%; viability, T/C [22]: 69%; viability, T/C [23]: 66.2%; viability, T/C [24]: 64.8%; viability, T/C [25]: 60.1%; viability, T/C [26]: 58.7%; viability, T/C [27]: 59.4%; viability, T/C [28]: 68.5%; viability, T/C [29]: 60.6%; viability, T/C [30]: 58.9%
Cn1nccc1Nc1nccc(-c2cc3c(s2)C(C)(C)N(CCN2CCOCC2)C3=O)n1 + C=CC(=O)N1CCN(c2nc(OCC3CCCN3C)nc3c2CCN(c2cccc4cccc(C)c24)C3)CC1CC#N	2320	3140	2540	1660	1300	99.1	112	89.8	82	38.4	4.17	89.9	89.9	95.3	94.1	49.8	3.82	112	92.3	91.2	viability, T/C [16]: 75.9%; viability, T/C [17]: 43%; viability, T/C [18]: 3.62%; viability, T/C [19]: 71.3%; viability, T/C [20]: 74.5%; viability, T/C [21]: 68.6%; viability, T/C [22]: 66.7%; viability, T/C [23]: 29.3%; viability, T/C [24]: 2.36%; viability, T/C [25]: 81.9%; viability, T/C [26]: 74.3%; viability, T/C [27]: 63%; viability, T/C [28]: 62.4%; viability, T/C [29]: 11.8%; viability, T/C [30]: 0.25%
